The text below walks through data of patent US20240053332A1, “Methods and Compositions Utilising Vitamin B12 Binding” (priority 2020, published 2024).

In one assay the target is BtuG2. Description: affinity of BtuG2 protein for B12. The assay is classed as binding. The source says:
We believe that it is possible to exploit this tight interaction in the same way as the Biotin-avidin system. We have shown that it is possible to attach protein-linkers to vitamin B12, allow vitamin B12 to become attached to proteins that have the necessary exposed amino acid side chains. […] The attachment is specific and strong. • (b) With Mologic, we have shown that a B12-maleimide will bind to a lactate dehydrogenase antibody, allowing the complex to be used in an immunoassay. This provides the proof of principal that the B12-B12 binding protein system can be exploited in therapeutic assays and diagnostics in the same way as biotin-avidin.

Assay [1] concerns Bacteroides thetaiotaomicron (Bt). The assay can be described thus: growth of Bt dependent upon vitB12. The assay is classed as cell-based. As for the experimental part:
Less growth is seen with serial 10-fold dilutions of B12-bound BEVs. By contrast and as controls, no growth is seen by adding 1 mM vitB12 directly to the cultures or by adding BEVs alone with no bound vitB12.

cobalamin [vitB12]: the “affinity of BtuG2 for B12” value on BtuG2 is listed as “femtomolar region”. Also, the “growth of Bt in vitB12-deficient media” value in assay [1] (FIG. 1 left panel, 1 mM vitB12, bound to BEVs or added directly to the cultures) is “no growth”. In addition, the “vitB12 concentration giving maximal growth of Bt” value in assay [1] (FIG. 1 right panel, no growth in its absence (0 nM)) is reported as 100 nM.
